Test results from ChEMBL document CHEMBL6109139, “Rational Design of the First Dual Agonist at Trace Amine-Associated Receptor 1 and 5-HT2C Receptors Based on Binding Pocket Similarity for the Treatment of Schizophrenia and Alzheimer's Disease-Related Psychosis” (J Med Chem, 2025).
The source made the active and inactive calls. No cut-off for these calls is given here.

Tests used:
[1] = molecular target: T1, Trace amine-associated receptor 1 (Homo sapiens) (UniProt Q96RJ0); test: Agonist activity at human TAAR1 extracted from CHO-K1 cell membrane coexpressing AGTRL1/Gi by measuring maximum efficacy at 0 to 100 uM by cAMP assay relative to control; format: functional, cell membranes; settings: dose 0-100 µM
T1 sequence (whole entry): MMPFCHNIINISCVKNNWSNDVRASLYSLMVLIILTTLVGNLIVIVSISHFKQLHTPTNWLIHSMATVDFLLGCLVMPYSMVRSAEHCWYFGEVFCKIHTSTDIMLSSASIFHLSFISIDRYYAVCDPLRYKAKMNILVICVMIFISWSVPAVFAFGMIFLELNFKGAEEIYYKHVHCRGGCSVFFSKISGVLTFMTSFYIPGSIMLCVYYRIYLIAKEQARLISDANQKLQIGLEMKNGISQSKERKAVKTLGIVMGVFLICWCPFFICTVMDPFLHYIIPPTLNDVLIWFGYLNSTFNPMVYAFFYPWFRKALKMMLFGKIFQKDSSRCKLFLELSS

[2] = molecular target: T2, Trace amine-associated receptor 1 (Homo sapiens, UniProt Q96RJ0); test: Agonist activity at human TAAR1 extracted from CHO-K1 cell membrane coexpressing AGTRL1/Gi by cAMP assay; format: functional, cell membranes
T2 sequence (Q96RJ0 whole entry): T1 sequence (whole entry)

Mus musculus [3] = test: Antipsychotic activity against DOI-induced head-twitch response in mouse assessed as reduction in head-twitch response at 10 mg/kg, IG measured for 30 mins; format: functional, organism-based
Mus musculus [4] = test: Antipsychotic activity in amyloid beta (1 to 42) induced hyperlocomotion in mouse model assessed as decrease in total distance traveled at 10 mg/kg by open field test; format: functional, organism-based
Mus musculus [5] = test: Antipsychotic activity in amyloid beta(1 to 42) induced cognitive impairment in mouse model assessed as increase in discrimination ratio of novel objects at 1 mg/kg, IG measured after 24 hrs by novel object recognition test; format: functional, organism-based
Mus musculus [6] = test: Antipsychotic activity in amyloid beta(1 to 42) induced cognitive impairment in mouse model assessed as reduction in exploration time at 1 mg/kg, IG measured after 24 hrs by novel object recognition test; format: functional, organism-based
[7] = molecular target: T3, 5-hydroxytryptamine receptor 2C (Homo sapiens, UniProt P28335); test: Agonist activity at recombinant human 5-HT2CR expressed in HEK293 cells incubated for 2 hrs by FLIPR calcium assay; format: functional, cell-based
T3 sequence (P28335 whole entry): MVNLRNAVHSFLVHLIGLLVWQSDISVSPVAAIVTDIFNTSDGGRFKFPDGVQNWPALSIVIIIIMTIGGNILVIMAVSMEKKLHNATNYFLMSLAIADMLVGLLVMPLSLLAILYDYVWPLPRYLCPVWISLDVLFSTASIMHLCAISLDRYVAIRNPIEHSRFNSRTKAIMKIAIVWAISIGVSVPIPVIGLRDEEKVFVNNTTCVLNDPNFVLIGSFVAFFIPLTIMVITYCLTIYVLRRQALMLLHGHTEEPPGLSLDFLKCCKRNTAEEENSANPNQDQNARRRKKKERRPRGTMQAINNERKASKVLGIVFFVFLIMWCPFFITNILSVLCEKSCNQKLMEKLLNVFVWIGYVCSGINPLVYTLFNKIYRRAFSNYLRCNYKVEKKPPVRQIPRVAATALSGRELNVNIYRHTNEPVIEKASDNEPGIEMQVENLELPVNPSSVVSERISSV

[8] = molecular target: T4, 5-hydroxytryptamine receptor 2C (Homo sapiens) (UniProt P28335); test: Agonist activity at recombinant human 5-HT2CR expressed in HEK293 cells incubated for 2 hrs by measuring maximum efficacy by FLIPR calcium assay relative to control; format: functional, cell-based
T4 sequence (whole entry): T3 sequence (P28335 whole entry)

Mus musculus [9] = species on record: Mus musculus; test: Antipsychotic activity against MK-801 induced hyperlocomotion in male C57BL/6J mouse model assessed as effective dose; format: functional

Structure (SMILES)	Emax ([1]; filed as agonist) [%]	EC50 [2] [µM]	also measured
FC(F)(F)COc1ccsc1C1CNCCO1 (racemic)	97.7		
Fc1ccc(C2CNCCO2)s1 (racemic)	80.8		
FC(F)COc1ccsc1C1CNCCO1 (racemic)	75.2	32.4	
c1cc2c(o1)C1CNCCN1CC2 (stereo in doubt; 22b) [listing 1 of 2 here]		0.776	
COc1csc(C2CNCCO2)c1 (stereo in doubt; 26a) [listing 1 of 2 here]	63.8		
c1cc2c(s1)CCN1CCNCC21 (stereo in doubt; 23b)	77		
CCCCCN1CCc2ccsc2C1CN (stereo in doubt; 20a)			Emax [1]: 0%
CC1(c2cccs2)CNCCO1 (racemic)	92.6	20.7	
COc1csc(C2CNCCO2)c1 (stereo in doubt; 26a) [listing 2 of 2 here]		23.6	
CC(C)Oc1ccsc1C1CNCCO1 (racemic)		> 100	Emax [1]: 18.1%
CNCC1OC(C)(C)Cc2ccsc21 (racemic)	99.6		
CNCC1NCCc2ccsc21 (stereo in doubt; 17a) [listing 1 of 2 here]		42.1	
c1cc2c(o1)C1CNCCN1CC2 (stereo in doubt; 22b) [listing 2 of 2 here]	94.3		
CCCN1CCc2ccsc2C1CN (stereo in doubt; 19b)			Emax [1]: 34.3%
CNCC1SCCc2ccsc21 (stereo in doubt; 16b)	74.6		
CNCC1OCC(C)(C)c2ccsc21 (racemic)	53.3	24.1	
COc1ccc(C2CNCCO2)s1 (stereo in doubt; 27a) [listing 1 of 2 here]		37.5	

Structure (SMILES)	Emax ([1]; filed as agonist) [%]	EC50 [2] [µM]	also measured
COc1ccc(C2CNCCO2)s1 (stereo in doubt; 27b)		1.59	
CC(=O)c1ccsc1C1CNCCO1 (stereo in doubt; 36b) [listing 1 of 2 here]	41.7		
c1ccc2c(c1)CCN1CCNCC21 (racemic) [AZAQUINZOLE]		41.7	Emax [1]: 37.2%
O=c1ccc2ccc(OCCCCN3CCN(c4cccc5sccc45)CC3)cc2[nH]1			Activity (Mus musculus [3]): Active; Activity (Mus musculus [4]): Active; Activity (Mus musculus [5]): inactive; Activity (Mus musculus [6]): Active
CNCC1OC(COC)Cc2ccsc21 (racemic)	64	38	
CCCN1CCc2ccsc2C1CN (stereo in doubt; 19a)			Emax [1]: 35.7%
CN1CCc2ccsc2C1CN (stereo in doubt; 18a)		> 100	
CNCC1NCCc2ccsc21 (stereo in doubt; 17a) [listing 2 of 2 here]			Emax [1]: 33.8%
CNCC1NCCc2ccsc21 (stereo in doubt; 17b)		7.96	
OCC1OCCc2ccsc21 (stereo in doubt; 15b)			Emax [1]: 2.72%
COc1ccc(C2CNCCO2)s1 (stereo in doubt; 27a) [listing 2 of 2 here]	69		
CC(=O)c1ccsc1C1CNCCO1 (stereo in doubt; 36a)			Emax [1]: 2.04%
CCc1[nH]nc(C(=O)Nc2ccc([C@H]3CNCCO3)cc2)c1C [RALMITARONT]	66		EC50 [7]: > 100 µM; Emax [8]: 0.13%; ED50 (Mus musculus [9]): < 400 mg/kg
CC(=O)c1ccsc1C1CNCCO1 (stereo in doubt; 36b) [listing 2 of 2 here]		15.2	
CNCC1SCCc2ccsc21 (stereo in doubt; 16a) [listing 1 of 2 here]		20.7	
CNCC1SCCc2ccsc21 (stereo in doubt; 16a) [listing 2 of 2 here]			Emax [1]: 37.4%
